Measured values as given in article PMC9898036, “VIP152 is a selective CDK9 inhibitor with pre-clinical in vitro and in vivo efficacy in chronic lymphocytic leukemia” (Leukemia, 2022).

What was measured:
Test in all cases: DiscoverX KINOMEscan kinase profiling (468 assays)
Format in all cases: binding
human kinome [1] = target: human kinome (Homo sapiens, UniProt Q9Y2H9); details: MAST1; 100 nM; read-out: Percent Control
Procedure, shortened: (§1)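 DNA-tagged kinases competed for immobilized biotinylated ligands on streptavidin magnetic beads, with bound kinase quantified by qPCR. VIP152 in DMSO was tested against a DMSO control.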

human kinome [2] = target: human kinome (Homo sapiens, UniProt Q13464); details: kinase ROCK1 (Entrez ROCK1); compound concentration 1000 nM; read-out: Percent Control
Procedure, shortened: as §1

human kinome [3] = target: human kinome (Homo sapiens, UniProt P07949, V804L); details: kinase RET(V804L) (Entrez RET); compound concentration 1000 nM; read-out: Percent Control
Procedure, shortened: as §1

human kinome [4] = target: human kinome (Homo sapiens, UniProt Q14012); details: CAMK1; 100 nM; read-out: Percent Control
Procedure, shortened: as §1

human kinome [5] = target: human kinome (Homo sapiens, UniProt P48736); details: read-out: Percent Control
Chain of human kinome (Homo sapiens, UniProt P48736) (P48736 whole entry): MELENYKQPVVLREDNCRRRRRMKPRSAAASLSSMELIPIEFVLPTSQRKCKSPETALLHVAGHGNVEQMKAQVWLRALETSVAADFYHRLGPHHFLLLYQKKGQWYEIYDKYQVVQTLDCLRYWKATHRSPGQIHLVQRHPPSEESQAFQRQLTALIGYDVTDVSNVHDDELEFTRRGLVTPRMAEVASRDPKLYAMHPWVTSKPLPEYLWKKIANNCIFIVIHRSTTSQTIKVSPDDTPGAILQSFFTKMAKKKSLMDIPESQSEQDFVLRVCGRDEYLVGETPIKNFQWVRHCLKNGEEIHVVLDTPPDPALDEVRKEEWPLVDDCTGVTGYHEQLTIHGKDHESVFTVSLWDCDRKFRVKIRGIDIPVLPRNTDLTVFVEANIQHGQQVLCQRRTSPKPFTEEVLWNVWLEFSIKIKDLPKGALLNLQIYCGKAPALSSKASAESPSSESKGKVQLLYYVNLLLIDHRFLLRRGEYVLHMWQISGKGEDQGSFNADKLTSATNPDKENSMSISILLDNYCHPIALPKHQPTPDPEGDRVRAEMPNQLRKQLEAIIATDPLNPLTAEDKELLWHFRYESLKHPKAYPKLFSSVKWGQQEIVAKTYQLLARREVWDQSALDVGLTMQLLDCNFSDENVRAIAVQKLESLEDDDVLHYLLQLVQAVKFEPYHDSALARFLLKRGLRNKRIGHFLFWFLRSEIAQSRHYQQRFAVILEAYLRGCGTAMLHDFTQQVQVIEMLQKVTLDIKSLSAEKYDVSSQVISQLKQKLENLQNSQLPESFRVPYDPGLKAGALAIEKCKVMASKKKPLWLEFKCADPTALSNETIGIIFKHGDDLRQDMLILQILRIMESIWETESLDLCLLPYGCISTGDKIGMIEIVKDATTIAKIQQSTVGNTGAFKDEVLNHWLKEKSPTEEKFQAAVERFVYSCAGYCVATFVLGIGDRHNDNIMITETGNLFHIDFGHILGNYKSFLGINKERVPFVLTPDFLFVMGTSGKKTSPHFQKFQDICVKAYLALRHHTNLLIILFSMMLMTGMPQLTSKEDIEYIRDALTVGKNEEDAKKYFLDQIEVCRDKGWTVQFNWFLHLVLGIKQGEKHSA
Procedure, shortened: as §1

human kinome [6] = target: human kinome (Homo sapiens, UniProt Q99759); details: MAP3K3; 100 nM; read-out: Percent Control
Procedure, shortened: as §1

human kinome [7] = target: human kinome (Homo sapiens, UniProt Q9H2G2); details: kinase SLK (Entrez SLK); compound concentration 1000 nM; read-out: Percent Control
Procedure, shortened: as §1

human kinome [8] = target: human kinome (Homo sapiens, UniProt O15111); details: IKK-alpha (Entrez CHUK); 100 nM; read-out: Percent Control
Procedure, shortened: as §1

human kinome [9] = target: human kinome (Homo sapiens, UniProt Q8N4C8); details: MINK (Entrez MINK1); 100 nM; read-out: Percent Control
Procedure, shortened: as §1

human kinome [10] = target: human kinome (Homo sapiens, UniProt Q99640); details: read-out: Percent Control
Chain of human kinome (Homo sapiens, UniProt Q99640) (Q99640 whole entry): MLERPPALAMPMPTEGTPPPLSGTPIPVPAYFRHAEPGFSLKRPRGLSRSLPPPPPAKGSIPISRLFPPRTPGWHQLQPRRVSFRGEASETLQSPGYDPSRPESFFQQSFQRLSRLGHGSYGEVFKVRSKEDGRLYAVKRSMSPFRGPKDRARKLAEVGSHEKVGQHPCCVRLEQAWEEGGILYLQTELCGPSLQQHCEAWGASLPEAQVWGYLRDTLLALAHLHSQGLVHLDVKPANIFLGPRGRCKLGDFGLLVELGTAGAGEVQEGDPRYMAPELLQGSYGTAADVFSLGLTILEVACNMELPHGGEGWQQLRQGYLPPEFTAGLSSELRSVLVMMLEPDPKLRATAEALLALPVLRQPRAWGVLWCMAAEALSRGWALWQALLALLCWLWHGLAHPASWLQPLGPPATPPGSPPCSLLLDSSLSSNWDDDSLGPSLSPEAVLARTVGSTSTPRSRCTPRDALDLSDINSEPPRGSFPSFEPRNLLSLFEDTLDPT
Procedure, shortened: as §1

human kinome [11] = target: human kinome (Homo sapiens, UniProt O76039); details: CDKL5; 100 nM; read-out: Percent Control
Procedure, shortened: as §1

human kinome [12] = target: human kinome (Homo sapiens, UniProt Q8N5S9); details: CAMKK1; 100 nM; read-out: Percent Control
Procedure, shortened: as §1

human kinome [13] = target: human kinome (Homo sapiens, UniProt Q9UL54); details: kinase TAOK2 (Entrez TAOK2); compound concentration 1000 nM; read-out: Percent Control
Procedure, shortened: as §1

human kinome [14] = target: human kinome (Homo sapiens, UniProt P49674); details: CSNK1E; 100 nM; read-out: Percent Control
Procedure, shortened: as §1

human kinome [15] = target: human kinome (Homo sapiens, UniProt P42336, C420R); details: read-out: Percent Control
Chain of human kinome (Homo sapiens, UniProt P42336, C420R) (P42336 whole entry C420R): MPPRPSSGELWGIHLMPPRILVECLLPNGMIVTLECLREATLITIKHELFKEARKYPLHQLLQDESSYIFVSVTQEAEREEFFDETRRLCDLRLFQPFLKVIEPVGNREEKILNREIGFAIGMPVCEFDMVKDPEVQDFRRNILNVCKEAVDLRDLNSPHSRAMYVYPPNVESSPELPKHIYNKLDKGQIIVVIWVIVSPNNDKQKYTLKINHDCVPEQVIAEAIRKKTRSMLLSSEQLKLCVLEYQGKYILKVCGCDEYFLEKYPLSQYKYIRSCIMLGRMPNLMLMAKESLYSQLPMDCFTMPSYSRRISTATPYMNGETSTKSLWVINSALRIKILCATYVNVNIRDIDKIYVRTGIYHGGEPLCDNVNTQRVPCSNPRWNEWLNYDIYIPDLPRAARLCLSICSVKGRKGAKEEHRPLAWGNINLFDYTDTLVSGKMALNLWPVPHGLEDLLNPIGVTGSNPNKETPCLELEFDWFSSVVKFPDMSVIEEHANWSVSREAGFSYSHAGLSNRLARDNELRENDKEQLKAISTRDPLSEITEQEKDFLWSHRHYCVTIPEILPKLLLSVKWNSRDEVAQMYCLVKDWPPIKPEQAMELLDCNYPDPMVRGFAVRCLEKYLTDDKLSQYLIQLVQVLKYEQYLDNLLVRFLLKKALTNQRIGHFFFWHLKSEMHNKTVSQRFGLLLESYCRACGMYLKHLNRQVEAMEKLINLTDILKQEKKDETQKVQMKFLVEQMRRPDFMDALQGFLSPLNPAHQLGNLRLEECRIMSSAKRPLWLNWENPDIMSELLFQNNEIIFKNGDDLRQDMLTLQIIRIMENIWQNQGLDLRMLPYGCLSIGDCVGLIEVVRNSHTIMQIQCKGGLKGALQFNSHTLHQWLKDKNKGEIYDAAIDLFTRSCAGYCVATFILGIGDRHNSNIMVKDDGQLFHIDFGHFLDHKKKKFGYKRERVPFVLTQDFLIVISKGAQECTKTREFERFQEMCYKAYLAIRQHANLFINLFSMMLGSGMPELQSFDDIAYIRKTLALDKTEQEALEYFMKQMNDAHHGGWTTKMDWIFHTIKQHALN
Procedure, shortened: as §1

human kinome [16] = target: human kinome (Homo sapiens, UniProt P00533); details: EGFR; 100 nM; read-out: Percent Control
Procedure, shortened: as §1

human kinome [17] = target: human kinome (Homo sapiens, UniProt Q9P289); details: MST4; 100 nM; read-out: Percent Control
Procedure, shortened: as §1

human kinome [18] = target: human kinome (Homo sapiens, UniProt Q9H422); details: HIPK3; 100 nM; read-out: Percent Control
Procedure, shortened: as §1

human kinome [19] = target: human kinome (Homo sapiens, UniProt P51957); details: read-out: Percent Control
Chain of human kinome (Homo sapiens, UniProt P51957) (P51957 whole entry): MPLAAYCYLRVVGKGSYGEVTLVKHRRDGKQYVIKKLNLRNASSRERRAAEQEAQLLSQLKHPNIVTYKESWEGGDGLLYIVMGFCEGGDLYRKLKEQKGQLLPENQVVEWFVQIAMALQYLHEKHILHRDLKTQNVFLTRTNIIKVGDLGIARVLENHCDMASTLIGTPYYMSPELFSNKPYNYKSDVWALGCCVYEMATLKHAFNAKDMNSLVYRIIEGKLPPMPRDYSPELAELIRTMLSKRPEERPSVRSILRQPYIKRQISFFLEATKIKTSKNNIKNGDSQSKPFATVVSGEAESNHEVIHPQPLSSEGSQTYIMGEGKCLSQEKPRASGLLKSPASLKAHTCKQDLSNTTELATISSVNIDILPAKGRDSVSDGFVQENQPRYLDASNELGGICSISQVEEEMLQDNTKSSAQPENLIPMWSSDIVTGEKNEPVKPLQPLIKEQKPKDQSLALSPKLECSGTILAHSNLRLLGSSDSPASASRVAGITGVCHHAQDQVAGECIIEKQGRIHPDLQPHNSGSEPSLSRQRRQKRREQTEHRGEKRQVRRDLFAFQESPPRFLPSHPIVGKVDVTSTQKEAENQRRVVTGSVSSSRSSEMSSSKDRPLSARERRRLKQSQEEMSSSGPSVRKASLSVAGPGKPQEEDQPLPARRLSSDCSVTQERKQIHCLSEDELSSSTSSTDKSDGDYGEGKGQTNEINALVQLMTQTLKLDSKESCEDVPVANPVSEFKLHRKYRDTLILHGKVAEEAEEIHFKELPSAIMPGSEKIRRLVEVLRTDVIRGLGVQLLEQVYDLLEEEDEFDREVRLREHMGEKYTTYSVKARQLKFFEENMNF
Procedure, shortened: as §1

human kinome [20] = target: human kinome (Homo sapiens, UniProt P12931); details: kinase SRC (Entrez SRC); compound concentration 1000 nM; read-out: Percent Control
Procedure, shortened: as §1

human kinome [21] = target: human kinome (Homo sapiens, UniProt O60674); details: JAK2(JH1domain-catalytic); 100 nM; read-out: Percent Control
Procedure, shortened: as §1

human kinome [22] = target: human kinome (Homo sapiens, UniProt P29320); details: EPHA3; 100 nM; read-out: Percent Control
Procedure, shortened: as §1

human kinome [23] = target: human kinome (Homo sapiens, UniProt Q96J92); details: kinase WNK4 (Entrez WNK4); compound concentration 1000 nM; read-out: Percent Control
Procedure, shortened: as §1

human kinome [24] = target: human kinome (Homo sapiens, UniProt P22455); details: FGFR4; 100 nM; read-out: Percent Control
Procedure, shortened: as §1

human kinome [25] = target: human kinome (Homo sapiens, UniProt Q96NX5); details: CAMK1G; 100 nM; read-out: Percent Control
Chain of human kinome (Homo sapiens, UniProt Q96NX5) (Q96NX5 whole entry): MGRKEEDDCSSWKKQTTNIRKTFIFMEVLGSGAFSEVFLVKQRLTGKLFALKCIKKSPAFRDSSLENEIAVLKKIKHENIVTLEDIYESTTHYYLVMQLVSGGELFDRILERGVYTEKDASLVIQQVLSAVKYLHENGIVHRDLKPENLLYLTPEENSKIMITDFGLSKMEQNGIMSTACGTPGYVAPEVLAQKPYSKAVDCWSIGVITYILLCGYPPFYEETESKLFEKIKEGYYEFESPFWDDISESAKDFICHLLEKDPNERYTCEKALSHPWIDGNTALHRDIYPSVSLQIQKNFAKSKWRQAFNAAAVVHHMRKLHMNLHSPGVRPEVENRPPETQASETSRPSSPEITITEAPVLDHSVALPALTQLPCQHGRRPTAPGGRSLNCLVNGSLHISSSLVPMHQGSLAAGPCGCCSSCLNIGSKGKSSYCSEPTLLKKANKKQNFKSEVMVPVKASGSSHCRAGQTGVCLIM
Procedure, shortened: as §1

human kinome [26] = target: human kinome (Homo sapiens, UniProt Q6DT37); details: DMPK2 (Entrez CDC42BPG); 100 nM; read-out: Percent Control
Procedure, shortened: as §1

human kinome [27] = target: human kinome (Homo sapiens, UniProt Q9UBF8); details: read-out: Percent Control
Chain of human kinome (Homo sapiens, UniProt Q9UBF8) (Q9UBF8 whole entry): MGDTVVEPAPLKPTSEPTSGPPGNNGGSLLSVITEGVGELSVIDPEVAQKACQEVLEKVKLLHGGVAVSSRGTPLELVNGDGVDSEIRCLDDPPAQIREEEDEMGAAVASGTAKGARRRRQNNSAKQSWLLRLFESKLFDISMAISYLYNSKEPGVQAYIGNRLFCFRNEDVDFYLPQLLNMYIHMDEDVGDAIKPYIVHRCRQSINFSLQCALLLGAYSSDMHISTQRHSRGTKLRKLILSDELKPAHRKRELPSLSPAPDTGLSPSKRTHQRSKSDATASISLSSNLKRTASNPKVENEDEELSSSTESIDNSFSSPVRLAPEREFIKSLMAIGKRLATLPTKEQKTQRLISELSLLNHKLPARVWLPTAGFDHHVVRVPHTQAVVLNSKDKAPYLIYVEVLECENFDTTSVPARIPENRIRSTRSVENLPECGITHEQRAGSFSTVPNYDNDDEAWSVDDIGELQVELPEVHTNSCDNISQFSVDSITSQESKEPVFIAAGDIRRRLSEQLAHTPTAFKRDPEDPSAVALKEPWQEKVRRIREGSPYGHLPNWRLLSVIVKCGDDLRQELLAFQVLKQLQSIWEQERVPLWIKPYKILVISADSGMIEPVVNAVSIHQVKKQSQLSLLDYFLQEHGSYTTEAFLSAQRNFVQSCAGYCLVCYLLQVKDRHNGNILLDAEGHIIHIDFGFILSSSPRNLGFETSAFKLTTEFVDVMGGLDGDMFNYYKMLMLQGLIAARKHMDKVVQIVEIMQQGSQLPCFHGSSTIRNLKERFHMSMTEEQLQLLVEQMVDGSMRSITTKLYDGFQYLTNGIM
Procedure, shortened: as §1

human kinome [28] = target: human kinome (Homo sapiens, UniProt P51451); details: BLK; 100 nM; read-out: Percent Control
Procedure, shortened: as §1

human kinome [29] = target: human kinome (Homo sapiens, UniProt P29376); details: LTK; 100 nM; read-out: Percent Control
Procedure, shortened: as §1

human kinome [30] = target: human kinome (Homo sapiens, UniProt P36888, D835V); details: FLT3(D835V); 100 nM; read-out: Percent Control
Procedure, shortened: as §1

Work on COc1cc(F)ccc1-c1cc(Nc2cc(CS(C)(=N)=O)ccn2)ncc1F (centres unmarked) [VIP152] yielded a remaining binding at 0.1 µM (human kinome [1]) of 94%, a remaining binding at 1 µM (human kinome [2]) of 57% and a remaining binding at 1 µM (human kinome [3]) of 86%. For the same molecule, the remaining binding at 0.1 µM (human kinome [4]) was 100%, the remaining binding at 0.1 µM (human kinome [5]; PIK3CG, 100 nM) was 100% and the remaining binding at 1 µM (human kinome [5]; kinase PIK3CG (Entrez PIK3CG), compound concentration 1000 nM) was 97%. It also gave a remaining binding at 0.1 µM (human kinome [6]) of 100%, a remaining binding at 1 µM (human kinome [7]) of 16% and a remaining binding at 0.1 µM (human kinome [8]) of 100%. The remaining binding at 0.1 µM (human kinome [9]) was 100%, the remaining binding at 0.1 µM (human kinome [10]; PKMYT1, 100 nM) was 100% and the remaining binding at 1 µM (human kinome [10]; kinase PKMYT1 (Entrez PKMYT1), compound concentration 1000 nM) was 45%. The remaining binding at 0.1 µM (human kinome [11]) was 100%, the remaining binding at 0.1 µM (human kinome [12]) was 89% and the remaining binding at 1 µM (human kinome [13]) was 67%. For the same molecule, the remaining binding at 0.1 µM (human kinome [14]) was 95%, the remaining binding at 0.1 µM (human kinome [15]; PIK3CA(C420R), 100 nM) was 98% and the remaining binding at 1 µM (human kinome [15]; kinase PIK3CA(C420R) (Entrez PIK3CA), compound concentration 1000 nM) was 92%. For the same molecule, the remaining binding at 0.1 µM (human kinome [16]) was 100%, the remaining binding at 0.1 µM (human kinome [17]) was 100% and the remaining binding at 0.1 µM (human kinome [18]) was 100%. For the same molecule, the remaining binding at 0.1 µM (human kinome [19]; NEK4, 100 nM) was 100%, the remaining binding at 1 µM (human kinome [19]; kinase NEK4 (Entrez NEK4), compound concentration 1000 nM) was 100% and the remaining binding at 1 µM (human kinome [20]) was 83%. It also gave a remaining binding at 0.1 µM (human kinome [21]) of 100%, a remaining binding at 0.1 µM (human kinome [22]) of 100% and a remaining binding at 1 µM (human kinome [23]) of 80%. For the same molecule, the remaining binding at 0.1 µM (human kinome [24]) was 100%, the remaining binding at 0.1 µM (human kinome [25]) was 100% and the remaining binding at 0.1 µM (human kinome [26]) was 100%. For the same molecule, the remaining binding at 0.1 µM (human kinome [27]; PIK4CB (Entrez PI4KB), 100 nM) was 100%, the remaining binding at 1 µM (human kinome [27]; kinase PIK4CB (Entrez PI4KB), compound concentration 1000 nM) was 95% and the remaining binding at 0.1 µM (human kinome [28]) was 100%. It also gave a remaining binding at 0.1 µM (human kinome [29]) of 96% and a remaining binding at 0.1 µM (human kinome [30]) of 100%.
